A value given as a limit tells only on which side of the number the result lay.

Assay [1] has as its target T1, Protein tyrosine phosphatase type IVA 1 (Homo sapiens, UniProt Q93096).
T1 sequence (Q93096 whole entry): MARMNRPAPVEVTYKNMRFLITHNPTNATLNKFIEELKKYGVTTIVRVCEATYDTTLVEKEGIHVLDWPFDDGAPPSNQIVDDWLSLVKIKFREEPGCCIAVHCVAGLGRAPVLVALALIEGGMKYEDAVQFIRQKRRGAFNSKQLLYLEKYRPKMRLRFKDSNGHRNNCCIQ
Kind of assay: Inhibition of PRL1.

Assay [2] addresses T2, PTPsigma-(Brain) (Homo sapiens, UniProt Q9UM81). Kind of assay: Inhibition of His-tagged PTPsigma catalytic domain amino acid 1369 to 1948 using DiFMUP as substrate at 2 uM after 20 mins by spectrofluorometric analysis.
Target sequence in this assay (Q9UM81 as listed by the source): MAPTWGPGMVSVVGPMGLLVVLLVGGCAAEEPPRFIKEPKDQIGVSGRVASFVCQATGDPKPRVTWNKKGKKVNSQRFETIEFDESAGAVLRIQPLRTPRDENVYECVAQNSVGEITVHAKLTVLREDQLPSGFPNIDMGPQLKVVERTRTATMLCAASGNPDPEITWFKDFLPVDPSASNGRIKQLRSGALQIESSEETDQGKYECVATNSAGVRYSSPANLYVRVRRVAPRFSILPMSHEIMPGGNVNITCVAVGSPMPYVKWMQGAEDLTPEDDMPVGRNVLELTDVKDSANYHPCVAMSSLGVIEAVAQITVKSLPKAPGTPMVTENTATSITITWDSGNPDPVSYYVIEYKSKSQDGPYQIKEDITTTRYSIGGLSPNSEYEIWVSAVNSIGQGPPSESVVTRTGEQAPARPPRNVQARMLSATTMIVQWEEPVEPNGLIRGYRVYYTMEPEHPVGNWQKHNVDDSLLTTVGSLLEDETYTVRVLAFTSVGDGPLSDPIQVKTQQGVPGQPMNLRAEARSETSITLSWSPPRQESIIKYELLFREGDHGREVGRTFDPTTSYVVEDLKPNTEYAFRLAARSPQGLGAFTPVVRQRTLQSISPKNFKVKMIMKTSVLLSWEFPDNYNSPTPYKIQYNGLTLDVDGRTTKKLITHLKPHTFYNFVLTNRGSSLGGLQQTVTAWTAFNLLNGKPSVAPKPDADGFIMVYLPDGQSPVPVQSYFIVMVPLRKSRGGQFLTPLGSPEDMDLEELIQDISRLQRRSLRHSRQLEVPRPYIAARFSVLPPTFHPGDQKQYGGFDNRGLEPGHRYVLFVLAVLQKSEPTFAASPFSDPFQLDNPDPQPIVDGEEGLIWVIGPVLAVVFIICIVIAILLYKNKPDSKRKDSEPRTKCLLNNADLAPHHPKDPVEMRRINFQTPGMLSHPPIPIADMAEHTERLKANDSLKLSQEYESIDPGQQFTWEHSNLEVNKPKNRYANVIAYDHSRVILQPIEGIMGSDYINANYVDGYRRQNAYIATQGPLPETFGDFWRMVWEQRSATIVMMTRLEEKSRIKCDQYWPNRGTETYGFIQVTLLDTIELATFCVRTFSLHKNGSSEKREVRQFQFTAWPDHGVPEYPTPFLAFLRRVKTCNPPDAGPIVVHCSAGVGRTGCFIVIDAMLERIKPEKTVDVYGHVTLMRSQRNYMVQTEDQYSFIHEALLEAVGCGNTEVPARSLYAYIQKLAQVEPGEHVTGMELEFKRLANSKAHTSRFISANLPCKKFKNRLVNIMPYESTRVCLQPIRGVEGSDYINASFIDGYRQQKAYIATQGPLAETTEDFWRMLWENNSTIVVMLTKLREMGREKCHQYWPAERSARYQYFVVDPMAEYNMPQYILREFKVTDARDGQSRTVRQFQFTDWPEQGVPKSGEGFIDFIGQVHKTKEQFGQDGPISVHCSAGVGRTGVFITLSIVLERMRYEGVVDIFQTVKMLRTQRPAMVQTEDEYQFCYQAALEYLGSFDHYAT
Assay [3] has as its target T3, Dual specificity protein phosphatase 4 (Homo sapiens, UniProt Q13115).
T3 sequence (Q13115 whole entry): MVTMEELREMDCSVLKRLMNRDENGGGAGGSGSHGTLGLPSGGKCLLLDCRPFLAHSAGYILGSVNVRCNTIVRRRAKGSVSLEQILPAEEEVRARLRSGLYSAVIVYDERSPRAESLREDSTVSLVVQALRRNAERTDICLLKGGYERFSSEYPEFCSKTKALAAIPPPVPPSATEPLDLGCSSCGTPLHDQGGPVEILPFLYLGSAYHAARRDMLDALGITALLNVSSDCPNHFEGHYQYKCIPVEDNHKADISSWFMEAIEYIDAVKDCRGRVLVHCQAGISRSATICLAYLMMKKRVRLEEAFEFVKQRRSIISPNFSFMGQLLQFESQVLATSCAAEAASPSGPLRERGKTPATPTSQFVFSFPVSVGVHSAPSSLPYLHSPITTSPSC
Kind of assay: Inhibition of MKP2.

The target in assay [4] is T2, PTPsigma-(Brain). Kind of assay: Inhibition of His-tagged PTPsigma catalytic domain amino acid 1369 to 1948 using DiFMUP as substrate after 20 mins by spectrofluorometric analysis.
Target sequence in this assay (Q9UM81 whole entry, the tested form may be a part): as the sequence (Q9UM81 as listed by the source) above
Assay [5] deals with Protein tyrosine phosphatase type IVA 3 (Homo sapiens, UniProt O75365). Kind of assay: Inhibition of PRL3.
Sequence of Protein tyrosine phosphatase type IVA 3 (O75365 whole entry): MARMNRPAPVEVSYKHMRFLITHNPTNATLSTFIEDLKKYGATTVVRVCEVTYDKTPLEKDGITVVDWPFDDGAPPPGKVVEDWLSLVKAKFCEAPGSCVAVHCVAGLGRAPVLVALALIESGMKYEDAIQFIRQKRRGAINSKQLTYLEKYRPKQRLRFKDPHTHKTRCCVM

For `CC1=CC2=NC(=O)/C(=C/c3ccc(O)c(O)c3)C(=N)N2O1`, the IC50 in assay [1] was above 100 µM; in assay [3], 55.4 µM; in assay [4], 0.7 µM; in assay [5], above 100 µM. The compound further displayed an inhibition in assay [2] above 50%.
Take `O=C(CSc1nnc(-c2ccco2)c(-c2ccco2)n1)Nc1ccccc1[N+](=O)[O-]`: the half-maximal inhibitory concentration (IC50) in assay [1] is above 100 µM; in assay [3], above 100 µM; in assay [4], 1.3 µM; in assay [5], 57 µM. Besides, the inhibition in assay [2] was above 50%.
Take `O=c1/c(=C/c2ccc(O)c(O)c2)sc2nc3ccccc3n12`: the IC50 in assay [1] is 14 µM; in assay [3], above 100 µM; in assay [4], 0.9 µM; in assay [5], 11 µM. In assay [2], this compound had an inhibition above 50%.
Take `O=C1NC(=O)/C(=C\c2cccn2-c2ccc(C(=O)O)cc2)N1`: the IC50 in assay [1] is above 100 µM; in assay [3] it was above 100 µM; in assay [4] it was 0.2 µM; in assay [5], above 100 µM. In addition, in assay [2], the inhibition is above 50%.
Turning to `O=C1NC(=S)S/C1=C\c1cn(-c2ccccc2)nc1-c1cccc(OCc2ccccc2Cl)c1`, the IC50 stood at 37.2 µM in assay [1], 21 µM in assay [3], 0.6 µM in assay [4] and 27.6 µM in assay [5]. In addition, the inhibition in assay [2] is above 50%.
In the same order, the values of `c1ccc2nc(-c3nnc4sc(-c5cnccn5)nn34)ccc2c1` are 21 µM, 2.29 µM, 0.1 µM, above 100 µM and above 50%.
As to `N=C1/C(=C\c2ccc(O)c(O)c2)C(=O)N=C2SC(c3ccc(O)cc3)=NN12`, the IC50 is 39.8 µM in assay [1], above 100 µM in assay [3], 1.2 µM in assay [4] and 33.2 µM in assay [5]. Also, the inhibition in assay [2] is above 50%.

In general, IC50 refers to the concentration at which inhibition is half-maximal. By inhibition is commonly meant the relative decrease from the control value, in per cent.

Source of the values: ChEMBL document CHEMBL2146478, “Discovery of potent inhibitors of receptor protein tyrosine phosphatase sigma through the structure-based virtual screening” (Bioorg Med Chem Lett, 2012).
